Reference: ChEMBL document CHEMBL1201862, “PubChem BioAssay data set” (2004)
Each block holds one compound with its values, some of them ahead of it. Active and inactive are the calls of the source.

Experiments:
[1] = molecular target: T1, fMet-Leu-Phe receptor (Homo sapiens, UniProt P21462); experiment: FPR ligands, dose response (AID 519); type: functional
T1 sequence (P21462 whole entry): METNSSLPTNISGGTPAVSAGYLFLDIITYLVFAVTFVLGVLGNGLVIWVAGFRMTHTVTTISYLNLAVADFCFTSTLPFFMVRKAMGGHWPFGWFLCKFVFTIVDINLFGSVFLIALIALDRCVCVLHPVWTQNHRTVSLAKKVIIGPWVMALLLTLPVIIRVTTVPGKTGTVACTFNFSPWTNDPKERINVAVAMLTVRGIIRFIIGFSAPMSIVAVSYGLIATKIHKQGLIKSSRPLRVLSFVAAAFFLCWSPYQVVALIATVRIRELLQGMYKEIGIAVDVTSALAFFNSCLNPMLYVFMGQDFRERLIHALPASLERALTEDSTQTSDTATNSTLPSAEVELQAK

[2] = molecular target: T2, Oxysterols receptor LXR-beta (Homo sapiens, UniProt P55055); type: functional, cell-based;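 also: Cell-based luminescence dose-response assay of agonist activity at LXR, run as a confirmatory counterscreen to a daf-12 agonist screen; HEK293 cells with Gal4-LXR fusion and GAL4-driven luciferase reporter; agonist potency from rising luciferase signal of a Gal4-LXR reporter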
T2 sequence (P55055 whole entry): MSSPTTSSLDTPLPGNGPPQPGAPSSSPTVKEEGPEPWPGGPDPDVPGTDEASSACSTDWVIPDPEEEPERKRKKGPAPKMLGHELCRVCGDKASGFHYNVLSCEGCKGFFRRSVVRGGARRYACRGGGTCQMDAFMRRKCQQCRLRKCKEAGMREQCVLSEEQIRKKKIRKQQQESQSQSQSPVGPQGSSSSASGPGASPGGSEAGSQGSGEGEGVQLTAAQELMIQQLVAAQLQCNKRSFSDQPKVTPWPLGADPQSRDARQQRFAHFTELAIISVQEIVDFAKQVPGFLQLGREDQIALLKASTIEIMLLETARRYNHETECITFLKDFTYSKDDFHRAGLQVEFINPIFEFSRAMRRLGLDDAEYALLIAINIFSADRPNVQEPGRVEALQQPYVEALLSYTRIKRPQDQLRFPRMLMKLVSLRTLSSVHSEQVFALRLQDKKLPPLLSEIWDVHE

[3] = cells
[4] = P. falciparum 3D7-ScDHODH growth inhibitors, dose response, SYBR Green, dry powder samples (AID 1159570); type: functional, cell-based;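 also: parasite growth measured after 72 hours of compound exposure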
[5] = P. falciparum Dd2 growth inhibitors, dose response, SYBR Green, dry powder samples, set 9 (AID 1159568); type: functional, cell-based
[6] = P. falciparum Dd2 growth inhibitors, dose response, SYBR Green, cherry-picked samples (AID 1159567); type: functional, cell-based
[7] = P. falciparum Dd2 growth inhibitors, dose response, SYBR Green, dry powder samples (AID 1159566); type: functional, cell-based;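 also: potency for growth inhibition with lower SYBR green DNA signal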
[8] = P. falciparum ATP4 D1247Y mutant growth inhibitors, dose response, NITD609-resistant line, SYBR Green, dry powder (AID 1159571); type: functional, cell-based;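 also: parasites synchronized at ring stage by sorbitol before testing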
[9] = HeLa 2N DNA content increase, dose response, cell-based, IC50 (AID 1117349); type: functional
[10] = RKO cell viability reduction, dose response, CellTiter-Glo luminescence (AID 1117322); type: functional
[11] = cytotoxicity toward HCT116 cells – cell-based, CellTiter-Glo luminescence, IC50, dose response (AID 1117332); type: functional; settings: HCT-116
[12] = SNU-C1 cell viability reduction, dose response, CellTiter-Glo luminescence (AID 1117323); type: functional, cell-based
[13] = cytotoxicity toward Colo320 cells – cell-based, CellTiter-Glo luminescence, IC50, dose response (AID 1117334); type: functional; settings: COLO 320
[14] = HeLa 4N DNA content increase, dose response, cell-based, IC50 (AID 1117351); type: functional
[15] = cytotoxicity toward HT-29 cells – cell-based, CellTiter-Glo luminescence, IC50, dose response (AID 1117330); type: functional
[16] = CellTiter-Glo luminescent dose response of DLD-1 viability loss (AID 1117352); type: functional
[17] = HCT116 cell viability decrease, GSK3B pretreatment – CellTiter-Glo, IC50, dose response (AID 1117339); type: functional; settings: HCT-116

Ki [1]: > 66.7 µM (inactive)
Compound: CCOC(=O)c1c(C)[nH]c(/C=N/c2ccccc2)c1O

Compound: O=C1C(/C=N/Cc2ccco2)=C(O)c2ccccc21
EC50 [2]: > 67.5 µM (inactive)
EC50 [3]: > 67.5 µM (inactive)

Compound: COc1ccc(C#Cc2ccc3c(c2)O[C@@H](CN(C)C(=O)Nc2cccc(OC)c2)[C@@H](C)CN([C@H](C)CO)S3(=O)=O)cc1
AC50 [4]: 0.473 µM (active)
AC50 [5]: 0.466 µM (active)
AC50 [6]: 1.07 µM (active)
AC50 [7]: 0.49 µM (active)
AC50 [8]: 0.494 µM (active)

Compound: O=C(C[C@@H]1C[C@H]2c3cc(NC(=O)c4ccc5c(c4)OCO5)ccc3O[C@H]2[C@H](CO)O1)NCc1ccc(Oc2ccccc2)cc1
AC50 [5]: 25.6 µM (active)

Compound: Nc1nc(Cl)nc2c1ncn2[C@@H]1O[C@H](CO)[C@@H](O)[C@@H]1F [CLOFARABINE]
IC50 [9]: > 10 µM (inactive)
IC50 [10]: 0.001 µM (active)
IC50 [11]: 0.001 µM (active)
IC50 [12]: > 20 µM (inactive)
IC50 [13]: > 20 µM (inactive)
IC50 [14]: > 10 µM (inactive)
IC50 [15]: > 20 µM (inactive)
IC50 [16]: 0.164 µM (active)
IC50 [17]: 0.001 µM (active)
